± gives the expanded uncertainty stated by the source.
Legend:
[1] = xn = mol fraction of the nth substance listed; details: 101 kPa, Liquid, x1 = 1; for speed of sound: Frequency=2 MHz, Linear variable-path acoustic interferometer; for mass density: Pycnometric method
[2] = Liquid; for viscosity / mass density: 101 kPa; for mass density: Pycnometric method; for speed of sound: 101.33 kPa, Frequency=2 MHz, Linear variable-path acoustic interferometer

Row | SMILES | speed of sound ([1]; 303.15 K) [m/s] | mass density ([1]; 303.15 K) [kg/m3] | viscosity ([1]; 303.15 K) [mPa·s] | speed of sound ([1]; 313.15 K) [m/s] | mass density ([1]; 313.15 K) [kg/m3] | viscosity ([1]; 313.15 K) [mPa·s] | viscosity ([2]; 303.15 K) [mPa·s] | mass density ([2]; 303.15 K) [kg/m3] | speed of sound ([2]; 303.15 K) [m/s] | viscosity ([2]; 313.15 K) [mPa·s] | mass density ([2]; 313.15 K) [kg/m3] | speed of sound ([2]; 313.15 K) [m/s]
1 | Cc1ccccc1 [toluene] + CCCCCCCO | 1289 ± 3 | 856.62 ± 0.31 | 0.525 ± 0.029 | 1256 ± 2 | 847.03 ± 0.32 | 0.471 ± 0.027 |  |  |  |  |  | 
2 | CCCCCCCCCCO [decan-1-ol] |  |  |  |  |  |  | 9.716 ± 0.37 | 822.87 ± 0.29 | 1366 ± 3 | 6.82 ± 0.28 | 815.97 ± 0.31 | 1334 ± 3
3 | CCCCCCCO [heptan-1-ol] |  |  |  |  |  |  | 5.048 ± 0.22 | 814.89 ± 0.29 | 1313 ± 3 | 3.712 ± 0.17 | 807.68 ± 0.3 | 1279 ± 3
4 | Cc1ccccc1 [toluene] + CCCCCCCCO | 1289 ± 3 | 856.62 ± 0.31 | 0.525 ± 0.029 | 1256 ± 2 | 847.03 ± 0.32 | 0.471 ± 0.027 |  |  |  |  |  | 
5 | CCCCCCCCO [octan-1-ol] |  |  |  |  |  |  | 6.433 ± 0.26 | 818.38 ± 0.29 | 1334 ± 3 | 4.603 ± 0.2 | 811.05 ± 0.3 | 1304 ± 3
6 | Cc1ccccc1 [toluene] + CCCCCCCCCCO | 1289 ± 3 | 856.62 ± 0.31 | 0.525 ± 0.029 | 1256 ± 2 | 847.03 ± 0.32 | 0.471 ± 0.027 |  |  |  |  |  | 
7 | Cc1ccccc1 [toluene] |  |  |  |  |  |  | 0.525 ± 0.029 | 856.62 ± 0.31 | 1289 ± 3 | 0.471 ± 0.027 | 847.03 ± 0.32 | 1256 ± 2

Source: the NIST ThermoML archive (doi:10.1021/je0602519)
